What follows are compounds tested on Human immunodeficiency virus 1 (assay: Antiviral activity against Human immunodeficiency virus 1 infected human MT4 cells assessed as inhibition of virus-induced cytopathic effect by MTT assay). Details: Human immunodeficiency virus 1, MT4.
Format: functional, organism-based
`N#CCN1C(=O)N(Cc2cccc(Cl)c2)S(=O)(=O)c2cscc21` was tested, and the EC50 was 0.1 µM.
Work on `N#CCN1C(=O)N(Cc2cccc(F)c2)S(=O)(=O)c2cscc21` yielded an EC50 of 0.3 µM.
Work on `O=C1N(Cc2ccccc2)c2cscc2S(=O)(=O)N1CCc1ccccc1` yielded an EC50 of 41.4 µM.
In the case of `N#CCN1C(=O)N(Cc2cc(F)cc(F)c2)S(=O)(=O)c2cscc21`, the EC50 is reported as 8.6 µM.
`N#CCN1C(=O)N(Cc2ccccc2)S(=O)(=O)c2cscc21` showed an EC50 of 0.87 µM.
Work on `O=C1N(Cc2ccccc2)c2cscc2S(=O)(=O)N1Cc1ccccn1` yielded an EC50 of 0.2 µM.
`CN1C(=O)N(Cc2cccc(Cl)c2)S(=O)(=O)c2cscc21` showed an EC50 of 2.1 µM.
`CCN1C(=O)N(Cc2ccccc2)S(=O)(=O)c2cscc21` was tested, and the EC50 was 2.4 µM.
For `CCN1C(=O)N(Cc2ccccn2)S(=O)(=O)c2cscc21`, the EC50 was 1.1 µM.
For `CCN1C(=O)N(c2cccc(Cl)c2)S(=O)(=O)c2cscc21`, the EC50 was 61.3 µM.
With `CCCN1C(=O)N(Cc2ccccc2)S(=O)(=O)c2cscc21` the EC50 was 6.1 µM.
Compound `C=CCN1C(=O)N(Cc2ccccc2)S(=O)(=O)c2cscc21` has an EC50 of 6.3 µM.
In the case of `N#CCCN1C(=O)N(Cc2ccccc2)S(=O)(=O)c2cscc21`, the EC50 is reported as 4.9 µM.
With `O=C1N(c2cccc(Cl)c2)c2cscc2S(=O)(=O)N1Cc1ccccc1` the EC50 was 1.4 µM.
In the case of `O=C1N(c2ccc(Cl)cc2)c2cscc2S(=O)(=O)N1Cc1ccccc1`, the EC50 is reported as 7.4 µM.
`O=C1N(c2ccccc2Cl)c2cscc2S(=O)(=O)N1Cc1ccccc1` gave an EC50 of 0.1 µM.
With `C#CCN1C(=O)N(Cc2ccccc2)S(=O)(=O)c2cscc21` the EC50 was 0.96 µM.
With `N#CCN1C(=O)N(CCc2ccccc2)S(=O)(=O)c2cscc21` the EC50 was 10.9 µM.
`N#CCN1C(=O)N(Cc2ccccn2)S(=O)(=O)c2cscc21` was tested, and the EC50 was 0.4 µM.
In the case of `CCN1C(=O)N(Cc2cccc(Cl)c2)S(=O)(=O)c2cscc21`, the EC50 is reported as 0.09 µM.
For `O=C1N(Cc2ccccc2)c2cscc2S(=O)(=O)N1Cc1ccccc1`, the EC50 was 2.2 µM.
Work on `C#CCN1C(=O)N(Cc2cccc(Cl)c2)S(=O)(=O)c2cscc21` yielded an EC50 of 0.09 µM.
For `N#CCN1C(=O)N(Cc2cccc(Br)c2)S(=O)(=O)c2cscc21`, the EC50 was 0.05 µM.
For `CCN1C(=O)N(Cc2ccccc2Cl)S(=O)(=O)c2cscc21`, the EC50 was 7.6 µM.
`N#CCN1C(=O)N(Cc2cccnc2)S(=O)(=O)c2cscc21` gave an EC50 of 0.8 µM.
With `CCOC(=O)CN1C(=O)N(Cc2ccccc2)S(=O)(=O)c2cscc21` the EC50 was 7.3 µM.
For `CCN1C(=O)N(CCc2ccccc2)S(=O)(=O)c2cscc21`, the EC50 was 3.6 µM.
`CN1C(=O)N(Cc2ccccc2)S(=O)(=O)c2cscc21` gave an EC50 of 2.7 µM.

Source: ChEMBL document CHEMBL3046094, “Predicting anti-HIV activity of 1,1,3-trioxo[1,2,4]-thiadiazine (TTD) derivatives: 3D QSAR approach” (Med Chem Res, 2009)
